# Test results from PMC4102434 (Biochemical pharmacology, 2012).
# Key:
# Assay type in all cases: biochemical
# ces2e [1] = molecular target: T1, ces2e (Mus musculus, UniProt Q8BK48); assay: p-nitrophenylacetate hydrolysis, absorbance at […] nm; conditions: read-out: % inhibition at 1 nM
# T1 sequence (Q8BK48 27-559): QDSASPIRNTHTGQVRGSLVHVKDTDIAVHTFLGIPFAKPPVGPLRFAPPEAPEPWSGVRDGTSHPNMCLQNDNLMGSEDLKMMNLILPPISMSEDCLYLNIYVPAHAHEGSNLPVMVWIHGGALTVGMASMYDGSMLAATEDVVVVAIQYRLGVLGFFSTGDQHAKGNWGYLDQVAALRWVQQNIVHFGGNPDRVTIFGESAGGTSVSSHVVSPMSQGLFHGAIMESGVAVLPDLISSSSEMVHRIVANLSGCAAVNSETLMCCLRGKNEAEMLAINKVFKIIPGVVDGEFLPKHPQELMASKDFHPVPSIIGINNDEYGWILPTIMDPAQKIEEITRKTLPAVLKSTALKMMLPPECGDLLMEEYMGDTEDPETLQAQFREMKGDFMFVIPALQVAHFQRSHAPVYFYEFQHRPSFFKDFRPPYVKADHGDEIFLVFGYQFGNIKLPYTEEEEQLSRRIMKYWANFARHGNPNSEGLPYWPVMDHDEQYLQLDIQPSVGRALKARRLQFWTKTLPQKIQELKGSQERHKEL
# ces1d [2] = molecular target: T2, ces1d (Mus musculus, UniProt Q8VCT4); assay: as above; conditions: read-out: % inhibition at 1 nM
# T2 sequence (Q8VCT4 19-565): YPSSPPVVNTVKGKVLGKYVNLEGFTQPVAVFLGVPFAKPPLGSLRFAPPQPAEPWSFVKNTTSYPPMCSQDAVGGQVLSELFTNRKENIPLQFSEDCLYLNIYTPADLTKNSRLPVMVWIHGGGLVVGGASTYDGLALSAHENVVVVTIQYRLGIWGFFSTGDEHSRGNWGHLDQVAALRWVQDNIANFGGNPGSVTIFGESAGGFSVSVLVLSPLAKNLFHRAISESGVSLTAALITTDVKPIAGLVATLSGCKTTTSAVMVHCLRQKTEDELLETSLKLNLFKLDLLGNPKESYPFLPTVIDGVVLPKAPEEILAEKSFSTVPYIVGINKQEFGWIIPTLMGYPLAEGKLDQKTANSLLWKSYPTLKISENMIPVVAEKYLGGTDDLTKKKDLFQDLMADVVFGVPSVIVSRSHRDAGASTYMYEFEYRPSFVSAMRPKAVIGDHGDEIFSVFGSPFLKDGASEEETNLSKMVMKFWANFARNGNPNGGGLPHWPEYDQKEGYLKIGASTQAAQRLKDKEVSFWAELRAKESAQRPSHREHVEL
# ces2c [3] = molecular target: T3, ces2c (Mus musculus, UniProt Q91WG0); assay: as above; conditions: read-out: % inhibition at 1 nM
# T3 sequence (Q91WG0 27-561): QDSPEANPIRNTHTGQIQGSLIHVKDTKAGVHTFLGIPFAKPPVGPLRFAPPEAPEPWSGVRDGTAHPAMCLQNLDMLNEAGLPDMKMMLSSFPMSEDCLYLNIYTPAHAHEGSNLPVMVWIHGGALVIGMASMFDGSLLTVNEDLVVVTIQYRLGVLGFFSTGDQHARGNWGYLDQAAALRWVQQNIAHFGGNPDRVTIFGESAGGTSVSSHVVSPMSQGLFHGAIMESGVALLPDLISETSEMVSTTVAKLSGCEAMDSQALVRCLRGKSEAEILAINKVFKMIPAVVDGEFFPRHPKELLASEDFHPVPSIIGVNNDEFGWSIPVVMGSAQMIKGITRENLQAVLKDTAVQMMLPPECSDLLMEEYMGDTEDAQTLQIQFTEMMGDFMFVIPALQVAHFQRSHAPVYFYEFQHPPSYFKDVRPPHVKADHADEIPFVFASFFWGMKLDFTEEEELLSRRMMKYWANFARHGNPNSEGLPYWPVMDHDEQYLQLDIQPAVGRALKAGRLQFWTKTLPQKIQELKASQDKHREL
# ces1d [4] = molecular target: T4, ces1d (Rattus norvegicus, UniProt P16303); assay: as above; conditions: read-out: % inhibition at 10 nM
# T4 sequence (P16303 19-565): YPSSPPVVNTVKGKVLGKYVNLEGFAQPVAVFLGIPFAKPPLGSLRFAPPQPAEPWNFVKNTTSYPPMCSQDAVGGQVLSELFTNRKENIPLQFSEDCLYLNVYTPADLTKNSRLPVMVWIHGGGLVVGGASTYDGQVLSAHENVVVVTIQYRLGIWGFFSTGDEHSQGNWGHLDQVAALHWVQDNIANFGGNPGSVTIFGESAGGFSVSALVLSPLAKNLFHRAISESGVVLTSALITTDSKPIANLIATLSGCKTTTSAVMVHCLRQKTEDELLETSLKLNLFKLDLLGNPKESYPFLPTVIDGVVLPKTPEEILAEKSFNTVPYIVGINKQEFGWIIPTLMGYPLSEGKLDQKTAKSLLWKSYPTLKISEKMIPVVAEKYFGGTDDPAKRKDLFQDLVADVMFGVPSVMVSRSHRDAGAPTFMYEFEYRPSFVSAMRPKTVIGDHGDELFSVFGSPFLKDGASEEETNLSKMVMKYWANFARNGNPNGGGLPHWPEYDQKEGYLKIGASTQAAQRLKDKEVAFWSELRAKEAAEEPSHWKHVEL
# CES1 [5] = molecular target: T5, CES1 (Homo sapiens, UniProt P23141); assay: as above; conditions: read-out: % inhibition at 100 nM
# T5 sequence (P23141 18-567): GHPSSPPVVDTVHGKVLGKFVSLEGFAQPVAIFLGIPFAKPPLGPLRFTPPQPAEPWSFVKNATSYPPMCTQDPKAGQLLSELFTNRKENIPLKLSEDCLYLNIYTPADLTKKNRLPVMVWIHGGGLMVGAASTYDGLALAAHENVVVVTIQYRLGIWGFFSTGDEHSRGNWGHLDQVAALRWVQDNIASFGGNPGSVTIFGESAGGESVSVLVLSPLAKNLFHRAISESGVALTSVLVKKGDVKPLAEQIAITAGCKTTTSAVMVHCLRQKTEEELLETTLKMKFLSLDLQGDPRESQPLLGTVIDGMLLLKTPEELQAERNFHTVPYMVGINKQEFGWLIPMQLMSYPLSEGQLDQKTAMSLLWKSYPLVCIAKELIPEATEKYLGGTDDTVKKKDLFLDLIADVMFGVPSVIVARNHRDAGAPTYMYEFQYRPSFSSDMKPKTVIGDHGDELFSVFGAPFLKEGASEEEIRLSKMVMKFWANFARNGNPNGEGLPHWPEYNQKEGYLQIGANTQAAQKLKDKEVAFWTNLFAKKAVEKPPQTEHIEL
# ces1e [6] = molecular target: T6, ces1e (Rattus norvegicus, UniProt Q63108); assay: as above; conditions: read-out: % inhibition at 10 nM
# T6 sequence (Q63108 19-561): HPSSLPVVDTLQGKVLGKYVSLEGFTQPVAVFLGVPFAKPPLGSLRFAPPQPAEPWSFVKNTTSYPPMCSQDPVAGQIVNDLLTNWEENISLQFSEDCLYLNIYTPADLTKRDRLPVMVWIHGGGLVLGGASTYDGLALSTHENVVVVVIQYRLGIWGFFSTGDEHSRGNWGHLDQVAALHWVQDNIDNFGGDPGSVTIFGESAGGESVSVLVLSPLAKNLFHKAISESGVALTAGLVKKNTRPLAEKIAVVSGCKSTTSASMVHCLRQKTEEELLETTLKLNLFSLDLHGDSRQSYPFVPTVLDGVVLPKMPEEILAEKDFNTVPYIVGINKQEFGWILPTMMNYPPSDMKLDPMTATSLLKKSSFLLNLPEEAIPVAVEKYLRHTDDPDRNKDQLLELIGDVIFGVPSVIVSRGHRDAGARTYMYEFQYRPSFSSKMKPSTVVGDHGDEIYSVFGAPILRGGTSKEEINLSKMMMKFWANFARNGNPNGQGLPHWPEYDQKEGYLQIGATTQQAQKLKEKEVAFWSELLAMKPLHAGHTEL
# ces1d [7] = molecular target: T2, ces1d; assay: hydrolysis, absorbance at […] nm; conditions: 293T lysate, potassium phosphate pH 7.4
# ces2c [8] = molecular target: T3, ces2c; assay: hydrolysis, absorbance at […] nm; conditions: 293T lysate, potassium phosphate pH 7.4
# CES2 = molecular target: T7, CES2 (Homo sapiens, UniProt O00748); assay: hydrolysis, absorbance at […] nm; conditions: 293T lysate, potassium phosphate pH 7.4
# T7 sequence (O00748 27-559): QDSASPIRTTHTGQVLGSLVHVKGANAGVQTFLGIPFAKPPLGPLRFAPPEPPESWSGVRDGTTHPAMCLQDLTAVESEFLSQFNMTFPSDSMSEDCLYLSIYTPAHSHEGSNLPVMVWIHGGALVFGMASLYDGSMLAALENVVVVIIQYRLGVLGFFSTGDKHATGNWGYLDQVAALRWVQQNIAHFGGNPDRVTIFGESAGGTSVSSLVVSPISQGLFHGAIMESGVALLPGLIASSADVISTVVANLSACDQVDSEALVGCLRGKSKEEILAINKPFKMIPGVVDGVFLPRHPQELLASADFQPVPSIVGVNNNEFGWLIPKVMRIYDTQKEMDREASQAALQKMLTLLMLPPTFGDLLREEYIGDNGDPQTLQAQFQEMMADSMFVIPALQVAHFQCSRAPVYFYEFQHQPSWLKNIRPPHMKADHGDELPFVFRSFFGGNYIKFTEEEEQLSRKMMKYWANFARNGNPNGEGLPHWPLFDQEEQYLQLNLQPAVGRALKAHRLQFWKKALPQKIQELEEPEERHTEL
# ces1e [9] = molecular target: T6, ces1e; assay: hydrolysis, absorbance at […] nm; conditions: 293T lysate, potassium phosphate pH 7.4
# CES1 [10] = molecular target: T5, CES1; assay: hydrolysis, absorbance at […] nm; conditions: 293T lysate, potassium phosphate pH 7.4
# ces1d [11] = molecular target: T4, ces1d; assay: hydrolysis, absorbance at […] nm; conditions: 293T lysate, potassium phosphate pH 7.4
# ces2e [12] = molecular target: T1, ces2e; assay: hydrolysis, absorbance at […] nm; conditions: 293T lysate, potassium phosphate pH 7.4
Structure (SMILES),inhibition at 0.001 µM (ces2e [1]) [%],inhibition at 0.001 µM (ces1d [2]) [%],inhibition at 0.001 µM (ces2c [3]) [%],inhibition at 0.01 µM (ces1d [4]) [%],inhibition at 0.1 µM (CES1 [5]) [%],inhibition at 0.01 µM (ces1e [6]) [%],"hydrolysis, absorbance at 400 nm (ces1d [7])","hydrolysis, absorbance at 400 nm (ces2c [8])","hydrolysis, absorbance at 400 nm (CES2)","hydrolysis, absorbance at 400 nm (ces1e [9])","hydrolysis, absorbance at 400 nm (CES1 [10])","hydrolysis, absorbance at 400 nm (ces1d [11])","hydrolysis, absorbance at 400 nm (ces2e [12])"
CCCCCCCCCCC[C@@H](C[C@@H]1OC(=O)[C@H]1CCCCCC)OC(=O)[C@H](CC(C)C)NC=O [orlistat],55,12,90,20,~30,20,,,,,,,
CC(=O)Oc1ccc([N+](=O)[O-])cc1 [p-nitrophenylacetate],,,,,,,"Inhibition of p-nitrophenylacetate hydrolysis of recombinant carboxylesterases from human (A), mouse (B) or rat","Inhibition of p-nitrophenylacetate hydrolysis of recombinant carboxylesterases from human (A), mouse (B) or rat","Inhibition of p-nitrophenylacetate hydrolysis of recombinant carboxylesterases from human (A), mouse (B) or rat","Inhibition of p-nitrophenylacetate hydrolysis of recombinant carboxylesterases from human (A), mouse (B) or rat","Inhibition of p-nitrophenylacetate hydrolysis of recombinant carboxylesterases from human (A), mouse (B) or rat","Inhibition of p-nitrophenylacetate hydrolysis of recombinant carboxylesterases from human (A), mouse (B) or rat","Inhibition of p-nitrophenylacetate hydrolysis of recombinant carboxylesterases from human (A), mouse (B) or rat"
